Activity calls are given as the source filed them.
Legend:
[1] = cytotoxicity in HEK-293T cells, dose response, cytotoxicity control for TCR NF-kB inhibitor project, luminescence, T-cell screen hits (AID 489026); type: functional, cell-based;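 note: cells exposed to compound about 14 hours before the viability readout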
[2] = inhibitors of SNCA 5'UTR-driven reporter translation, confirmation, H4 neuroglioma cells, luminescence (AID 1988); type: functional, cell-based
[3] = HepG2 cell cytotoxicity, dose response, cytotoxicity control for Shn3 inhibitor project, CellTiter-Glo, cherry-picked (AID 624134); type: functional, cell-based
BJ [4] = test: cytotoxicity toward BJ-TERT fibroblasts, dose response, cell-based, RAS-independent, luminescence (AID 1933); type: functional; conditions: Homo sapiens
BJ [5] = test: cells; type: functional, cell-based; conditions: Homo sapiens
[6] = control 3'UTR Renilla luciferase suppression, dose response, counter-screen for Shn3 inhibitor project, cell-based, Clone20-Shn3RL, cherry-picked (AID 624133); type: functional
[7] = Luminescence Cell-Based Dose Response HTS to Identify Inhibitors of 5'UTR Stem-Loop Driven Prion Protein mRNA Translation in H4 Neuroglioblastoma Cells. [Related pubchem assays: 1827 (Project Summary), 1813 (Primary HTS)]; type: functional
[8] = inhibitors of firefly luciferase expression or activity, dose response, H4 neuroglioma cells, luminescence (AID 1990); type: functional, cell-based
[9] = cytotoxicity toward DRD oncogenic fibroblasts, dose response, cell-based, non-viral oncogenic, luminescence (AID 1934); type: functional; conditions: Homo sapiens
[10] = microbe, parasite or virus in culture; type: functional; conditions: Mycobacterium tuberculosis
BJ [11] = test: cytotoxicity toward BJ-TERT-LT-ST fibroblasts, dose response, cell-based, RAS-independent, luminescence (AID 1935); type: functional; conditions: Homo sapiens;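 note: BJ fibroblasts immortalized with TERT plus LT and ST oncogenes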
[12] = Shn3 3'UTR reporter inhibitors, dose response, cell-based, Clone20 osteoblasts, firefly luciferase, cherry-picked (AID 624132); type: functional;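 note: firefly luciferase luminescence from reporter carrying the Shn3 3'UTR in osteoblasts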
BJ [13] = test: cytotoxicity toward Ras-transformed BJeLR fibroblasts, dose response, cell-based, alamar blue fluorescence, cherrypicked samples (AID 2631); type: functional; conditions: Homo sapiens;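 note: confirmatory dose-response assay in RAS-dependent BJ fibroblasts engineered with TERT, LT and ST, with cytotoxicity read by fluorescence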
INS1 = test: beta cell apoptosis inhibitors, cytokine rescue, dose response, luminescence, retest (AID 449756); type: functional, cell-based; conditions: Rattus norvegicus;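 note: cell death triggered by IL-1 beta plus TNF-alpha plus IFN-gamma mixture; protective hits raise ATP signal compared with cytokine alone wells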
[14] = C. albicans growth with fluconazole, confirmation, fluorescence, retest (AID 2467); type: functional, cell-based
[15] = NIH-3T3 fibroblast cytotoxicity, dose response, cytotoxicity control, cell-based, fluorescence, Alamar Blue, secondary assay (AID 2327); type: functional;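 note: NIH-3T3 mouse fibroblasts cultured with fluconazole at 8 µg/mL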
cells [16] = type: functional, cell-based
cells [17] = type: functional, cell-based; remark: listed apart in the source
[18] = biological target: T1, Sentrin-specific protease 6 (Homo sapiens, UniProt Q9GZR1); type: functional;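 note: Luminescence-based dose-response confirmatory assay of SENP6 inhibition, following up an ultra-high-throughput screen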
T1 sequence (Q9GZR1 whole entry): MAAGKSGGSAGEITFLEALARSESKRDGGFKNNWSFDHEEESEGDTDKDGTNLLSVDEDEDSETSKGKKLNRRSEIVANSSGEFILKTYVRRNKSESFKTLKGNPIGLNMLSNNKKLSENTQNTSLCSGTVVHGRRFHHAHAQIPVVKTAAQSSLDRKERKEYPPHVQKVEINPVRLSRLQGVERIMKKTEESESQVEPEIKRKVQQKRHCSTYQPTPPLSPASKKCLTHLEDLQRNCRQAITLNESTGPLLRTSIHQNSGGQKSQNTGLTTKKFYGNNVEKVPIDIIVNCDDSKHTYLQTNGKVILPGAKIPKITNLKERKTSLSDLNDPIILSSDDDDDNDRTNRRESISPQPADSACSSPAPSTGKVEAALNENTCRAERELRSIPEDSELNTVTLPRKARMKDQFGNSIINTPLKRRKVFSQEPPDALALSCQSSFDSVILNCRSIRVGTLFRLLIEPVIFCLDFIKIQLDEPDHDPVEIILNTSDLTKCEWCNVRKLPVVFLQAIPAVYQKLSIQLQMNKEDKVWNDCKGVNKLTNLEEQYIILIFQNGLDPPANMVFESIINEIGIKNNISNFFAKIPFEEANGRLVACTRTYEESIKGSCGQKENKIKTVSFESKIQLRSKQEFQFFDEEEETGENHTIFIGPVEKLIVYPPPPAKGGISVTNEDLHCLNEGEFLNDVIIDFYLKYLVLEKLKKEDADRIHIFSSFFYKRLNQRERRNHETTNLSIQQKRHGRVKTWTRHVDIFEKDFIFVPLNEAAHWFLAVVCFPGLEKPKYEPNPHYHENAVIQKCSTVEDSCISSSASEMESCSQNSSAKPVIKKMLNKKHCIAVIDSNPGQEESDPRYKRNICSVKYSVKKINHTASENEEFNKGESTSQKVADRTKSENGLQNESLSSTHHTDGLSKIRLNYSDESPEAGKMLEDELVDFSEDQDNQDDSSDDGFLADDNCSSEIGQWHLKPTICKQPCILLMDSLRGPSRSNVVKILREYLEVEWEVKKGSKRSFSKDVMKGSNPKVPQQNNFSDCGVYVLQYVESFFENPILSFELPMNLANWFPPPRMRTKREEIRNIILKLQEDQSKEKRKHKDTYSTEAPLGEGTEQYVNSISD

[19] = biological target: T2, Sentrin-specific protease 8 (Homo sapiens, UniProt Q96LD8); type: functional;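 note: luminescence read-out of SENP8 inhibition, dose-response confirmation following an ultra-high-throughput screen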
T2 sequence (Q96LD8 whole entry): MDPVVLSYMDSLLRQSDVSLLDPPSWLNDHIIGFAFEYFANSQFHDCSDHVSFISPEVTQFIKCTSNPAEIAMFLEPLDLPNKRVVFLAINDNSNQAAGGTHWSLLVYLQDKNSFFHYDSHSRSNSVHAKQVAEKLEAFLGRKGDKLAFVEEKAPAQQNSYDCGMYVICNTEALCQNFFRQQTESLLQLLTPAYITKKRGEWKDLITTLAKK

Caspase-3 = biological target: T3, Caspase-3 (Homo sapiens, UniProt P42574); type: functional;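 note: Dose-response selectivity test against caspase-3 for candidate inhibitors of sentrin-specific proteases (SENPs)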
T3 sequence (P42574 whole entry): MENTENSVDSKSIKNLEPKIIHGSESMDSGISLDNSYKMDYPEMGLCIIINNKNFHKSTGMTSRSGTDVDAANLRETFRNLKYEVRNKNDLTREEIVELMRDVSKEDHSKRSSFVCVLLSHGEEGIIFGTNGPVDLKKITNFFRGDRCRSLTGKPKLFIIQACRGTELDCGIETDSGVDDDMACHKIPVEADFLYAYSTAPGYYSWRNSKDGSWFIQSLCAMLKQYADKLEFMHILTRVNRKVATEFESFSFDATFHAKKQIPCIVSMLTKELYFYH

[20] = biological target: T4, Sentrin-specific protease 7 (Homo sapiens, UniProt Q9BQF6); type: functional;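 note: Luminescence-based dose-response confirmation of ultra-high-throughput screening hits, measuring inhibition of SENP7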
T4 sequence (Q9BQF6 whole entry): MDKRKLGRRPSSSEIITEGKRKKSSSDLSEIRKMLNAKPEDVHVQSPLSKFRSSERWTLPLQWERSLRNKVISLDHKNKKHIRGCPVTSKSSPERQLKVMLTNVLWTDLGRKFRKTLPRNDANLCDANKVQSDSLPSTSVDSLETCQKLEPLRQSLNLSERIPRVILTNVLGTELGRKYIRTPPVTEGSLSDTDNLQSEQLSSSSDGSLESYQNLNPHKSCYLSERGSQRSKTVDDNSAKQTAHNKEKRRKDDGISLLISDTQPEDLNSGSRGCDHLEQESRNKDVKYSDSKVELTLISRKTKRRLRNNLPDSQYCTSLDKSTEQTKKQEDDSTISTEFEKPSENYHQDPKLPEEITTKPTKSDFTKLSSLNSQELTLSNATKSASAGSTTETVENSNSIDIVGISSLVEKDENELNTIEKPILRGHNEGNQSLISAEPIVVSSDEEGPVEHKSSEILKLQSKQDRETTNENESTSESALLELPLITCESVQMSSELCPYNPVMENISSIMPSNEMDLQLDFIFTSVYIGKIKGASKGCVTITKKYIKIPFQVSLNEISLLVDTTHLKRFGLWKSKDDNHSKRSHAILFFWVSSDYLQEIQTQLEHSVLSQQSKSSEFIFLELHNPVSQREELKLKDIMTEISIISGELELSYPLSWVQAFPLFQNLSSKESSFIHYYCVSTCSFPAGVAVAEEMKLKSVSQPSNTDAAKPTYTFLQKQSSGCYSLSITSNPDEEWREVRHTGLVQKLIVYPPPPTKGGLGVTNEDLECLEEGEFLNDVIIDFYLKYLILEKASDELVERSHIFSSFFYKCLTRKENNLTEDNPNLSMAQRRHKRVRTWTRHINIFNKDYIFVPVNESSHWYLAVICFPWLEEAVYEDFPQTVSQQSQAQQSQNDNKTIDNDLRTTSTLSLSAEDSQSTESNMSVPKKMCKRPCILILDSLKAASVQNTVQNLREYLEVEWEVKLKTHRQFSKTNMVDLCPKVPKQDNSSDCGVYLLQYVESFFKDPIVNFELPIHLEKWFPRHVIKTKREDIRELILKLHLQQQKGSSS

HeLa = test: HeLa cell cytotoxicity, dose response, cytotoxicity control for MITF activator project, CellTiter-Glo luminescence, cherry-pick samples (AID 540259); type: functional, cell-based; conditions: Homo sapiens
Protein Wnt-3a = Protein Wnt-3a (Mus musculus, UniProt P27467); test: Wnt3a-driven reporter signaling inhibition, dose response, selectivity assay for Gli-SUFU antagonist project, Wnt-LIGHT cells, luminescence (AID 651570); type: functional; conditions: read-out: IC50_Mean;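 note: Wnt-LIGHT reporter cells stimulated with conditioned medium from Wnt3a-producing cells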
Chain of Protein Wnt-3a (P27467 whole entry): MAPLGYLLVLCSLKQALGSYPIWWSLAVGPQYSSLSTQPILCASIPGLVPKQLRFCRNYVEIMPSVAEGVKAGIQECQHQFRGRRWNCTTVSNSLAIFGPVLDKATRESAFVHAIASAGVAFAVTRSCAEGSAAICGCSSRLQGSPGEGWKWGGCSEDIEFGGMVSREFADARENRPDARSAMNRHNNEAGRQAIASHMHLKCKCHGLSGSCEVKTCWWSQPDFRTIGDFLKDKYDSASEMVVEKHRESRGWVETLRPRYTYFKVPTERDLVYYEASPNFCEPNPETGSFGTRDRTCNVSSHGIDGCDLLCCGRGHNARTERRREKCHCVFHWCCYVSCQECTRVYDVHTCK

[21] = cytotoxicity toward NIH3T3 fibroblasts, dose response, counter-screen, cell-based, ATP luminescence, mouse fibroblasts (AID 2010); type: functional;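 note: cells exposed to compound for about 90 hours before reading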
[22] = inhibitors of intracellular T. cruzi replication, confirmation, NIH3T3 host cells, beta-gal luminescence (AID 2044); type: functional, cell-based;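 note: intracellular parasites grown in NIH/3T3 mouse fibroblasts as host cells; luminescent beta-galactosidase reporter signal from transgenic T. cruzi replicating inside host cells; inhibitors lower the luminescence signal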
Genome polyprotein = Genome polyprotein (dengue virus type 2, UniProt P29990); test: Dengue-2 NS5 methyltransferase inhibitors, primary screen, biochemical, confirmation dose response (AID 588689); type: functional
Chain of Genome polyprotein (P29990 2492-3391 limits assumed): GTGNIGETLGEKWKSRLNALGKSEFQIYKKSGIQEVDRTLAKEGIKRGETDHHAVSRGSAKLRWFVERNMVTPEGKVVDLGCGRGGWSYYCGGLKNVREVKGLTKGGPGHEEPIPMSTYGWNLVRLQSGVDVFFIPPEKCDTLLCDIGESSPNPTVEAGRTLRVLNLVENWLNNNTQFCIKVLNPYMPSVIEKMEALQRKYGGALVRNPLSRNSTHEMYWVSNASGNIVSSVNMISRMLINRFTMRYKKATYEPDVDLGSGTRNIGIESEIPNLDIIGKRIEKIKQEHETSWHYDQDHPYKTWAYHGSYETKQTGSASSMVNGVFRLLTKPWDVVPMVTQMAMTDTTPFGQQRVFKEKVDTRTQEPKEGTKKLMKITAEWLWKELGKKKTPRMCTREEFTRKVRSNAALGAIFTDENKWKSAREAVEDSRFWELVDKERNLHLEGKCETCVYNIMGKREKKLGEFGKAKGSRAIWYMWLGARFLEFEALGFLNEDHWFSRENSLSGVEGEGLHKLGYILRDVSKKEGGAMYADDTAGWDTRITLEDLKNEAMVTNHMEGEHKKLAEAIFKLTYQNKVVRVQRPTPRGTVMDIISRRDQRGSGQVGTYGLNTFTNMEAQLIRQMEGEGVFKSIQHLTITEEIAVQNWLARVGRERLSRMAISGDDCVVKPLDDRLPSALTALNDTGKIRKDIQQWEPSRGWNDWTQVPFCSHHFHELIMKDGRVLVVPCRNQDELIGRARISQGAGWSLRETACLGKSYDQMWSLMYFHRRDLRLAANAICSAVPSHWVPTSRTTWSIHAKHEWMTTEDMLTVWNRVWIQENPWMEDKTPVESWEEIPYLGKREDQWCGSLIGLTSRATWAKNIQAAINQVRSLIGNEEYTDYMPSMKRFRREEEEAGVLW

Vero = Vero cell cytotoxicity, cytotoxicity control for flavivirus capping enzyme inhibitors (AID 588742); type: functional; conditions: Chlorocebus sabaeus

Structure (SMILES): COc1cc(C2c3cc4c(cc3C(OC3OC5COC(c6cccs6)OC5C(O)C3O)C3COC(=O)C23)OCO4)cc(OC)c1O (centres undefined)
- IC50 [1]: > 80 µM (inactive)
- EC50 [2]: < 0.1 µM (active)
- AC50 [3]: 14.3 µM (active)
- EC50 (BJ [4]): 6.51 µM (inconclusive)
- EC50 (BJ [5]): 5.79 µM (inconclusive)
- AC50 [6]: 1.28 µM (active)
- EC50 [7]: 15.5 µM (active)
- EC50 [8]: 5.15 µM (active)
- EC50 [9]: 8.49 µM (inconclusive)
- CC50 [10]: 16.5 µM (active)
- EC50 (BJ [11]): 4.24 µM (active)
- AC50 [12]: 1.11 µM (active)
- EC50 (BJ [13]): 0.428 µM (active)

Structure (SMILES): Oc1cnnc(N/N=C/c2ccccn2)n1
- AC50 (INS1): 1.37 µM (active)
- EC50 (BJ [4]): 7.32 µM (active)
- EC50 [14]: 1.26 µM (active)
- EC50 [15]: 2.5 µM (inconclusive)
- EC50 (BJ [5]): 4.19 µM (active)
- EC50 (cells [16]): > 350 µM (not active)
- EC50 [9]: 6.35 µM (active)
- EC50 (cells [17]): 7.62 µM (active)
- EC50 (BJ [11]): 6.06 µM (active)
- EC50 (BJ [13]): 0.798 µM (active)

Structure (SMILES): CC(C)NC(=O)c1ccc2c3n(nc2c1)-c1ccc(Cl)cc1CO3
- IC50 [18]: 81.8 µM (active)
- IC50 [19]: 69.3 µM (active)
- IC50 (Caspase-3): 24 µM (active)
- IC50 [20]: 18.4 µM (active)
- AC50 (HeLa): 50.7 µM (active)

Structure (SMILES): Cc1ccc2c(c1)S/C(=C/c1ccc[n+](C)c1)N2CCO
- AC50 (INS1): 3.77 µM (active)
- IC50 (Protein Wnt-3a): 26.7 µM (inactive)
- EC50 [21]: > 60 µM (not active)
- EC50 [22]: 1.16 µM (active)

Structure (SMILES): O=C(c1ccccc1)c1ccc(O)c(O)c1O
- IC50 (Genome polyprotein): 57.7 µM (active)
- CC50 (Vero): > 40 µM (active)

Source: ChEMBL document CHEMBL1201862, “PubChem BioAssay data set” (2004)
